Square brackets hold non-standard residues; d marks the D form. Peptide text beside a SMILES is read from it. * marks the point of attachment. dPhe(4-NHCONH2) = NC(=O)Nc1ccc(C[C@@H](N)C(=O)O)cc1; Dihydroorotyl(S) = O=C1C[C@@H](C(=O)*)NC(=O)N1; dPhe(4-Cl) = N[C@H](Cc1ccc(Cl)cc1)C(=O)O; Phe(4-NH2) = Nc1ccc(C[C@H](N)C(=O)O)cc1; d2Nal = N[C@H](Cc1ccc2ccccc2c1)C(=O)O; Lys(iPr) = CC(C)NCCCC[C@H](N)C(=O)O; d3Pal = N[C@H](Cc1cccnc1)C(=O)O
How the values were obtained:
clinical = conditions: human, in vivo, sc
Protocol: Median degarelix trough concentrations in the maintenance phase with 80 mg at a concentration of 20 mg/mL was 10.9 ng/mL.
The long half-life after subcutaneous administration is a consequence of a very slow release of degarelix from the depot formed at the injection site(s). The pharmacokinetic behavior of the drug is strongly influenced by its concentration in the injection formulation.

human CYP450 system = assay type: in vitro ADME
[1] = in vivo
Protocol: Laboratory parameters (Table 4) were recorded at screening and during the study.

[2] = CS21: incidence rates of cardiovascular events per 1,000 person years (Poisson model), by risk-factor subgroup; conditions: for Coronary artery disease, % of patients / Coronary artery disease, incidence rate / HLGT Cardiac arrhythmias, % of patients / HLGT Cardiac arrhythmias, incidence rate / HLGT Central nervous system vascular disorders, % of patients / HLGT Central nervous system vascular disorders, incidence rate / HLGT Coronary artery disorders, % of patients / HLGT Coronary artery disorders, incidence rate / HLGT Heart failures, % of patients / HLGT Heart failures, incidence rate / Heart failure, % of patients / Heart failure, incidence rate / MI, % of patients / MI, incidence rate / Stroke, % of patients / Stroke, incidence rate: in vivo
Excerpt: The SCS summarizes both crude incidences (n/N) as well as incidence rates of adverse events (number of patients with at least one adverse event investigated per 1,000 person years) including exact 95% CI based on the Poisson model and presented per MedDRA Preferred term (and grouped by SOC) for all study-groups, including the CS21 trial (the trial comprising the controlled phase 3 study group) and for all sub-groups. Briefly, the Poisson model provides exact 1-α lower (LL) and upper (UL) confidence limits are LL=χ2x; α/2^2/(2T) and UL=χ2(x+1); 1-α/2^2/(2T), respectively, where T is the number of 1,000 person years and x=number of subjects at least once having reported the adverse event under investigation (see Gerlinger et al. (2003) Eur. J. Contracept. Reprod. Health Care 8:87-92).
These P values were presented as *(0.01<P≤0.05), ** (0.001<P≤0.01), and *** (P≤0.001). Similarly, incidence rates were compared using P values associated with the Poison model-based UMPU test. Briefly, assuming xi˜Poisson(λiTi), where xi=the number of subjects with the event, Ti=total number of 1,000 person years in arm i and λi=incidence rate in arm i (i=1,2), then the P value=2 min ([…], P(S≤x1), 0.5), where S˜Binomial (x1+x2, T1/(T1+T2)) (see, e.g. Lehmann (1986) Testing Statistical Hypotheses, 2nd edition, Springer-Verlag, New York).
In the SCS, cardiovascular events were more specifically investigated on more aggregated MedDRA levels, i.e. the incidence, and incidence rates of subject with AEs in the following High Level Group Terms were tabulated by study group and treatment:
These subgroup analyses were not pre-planned as part of the SCS.

[3] = human, in vivo
Excerpt: Safety data from all clinical trials with degarelix in the treatment of prostate cancer, including patients receiving other dosing regimens, were pooled.

[4] = in vivo; remark: listed apart in the source
Protocol: In this example, a study was conducted to investigate the risk of cardiovascular events when ADT is utilized by a GnRH antagonist versus agonist in patients with or without a history of cardiovascular events.
Specifically, this study utilized available data yielding a safety database of 2328 PCa (prostate cancer) patients who participated in randomized clinical trials and received treatment with either degarelix or a GnRH agonist for up to 12 months (13 treatment months).
The study is based on data from two completed Phase 3 and 4 Phase 3b trials, all of which used an active comparator in form of a GnRH agonist. In each study, the primary inclusion criteria were male subjects ≥8 years of age with histologically confirmed adenocarcinoma of the prostate in whom ADT was indicated and a life expectancy of minimum 12 months could be anticipated. All subjects had serum testosterone levels that were either within the age-specified normal range or above the lower limit of the normal range of the central laboratory and ECOG score ≤2. Exclusion criterion ensured that none of the subjects had received long-term ADT (>6 months) before study entry.
Baseline evaluation included thorough collection of the main demographic characteristics (age, weight, height), lifestyle factors (smoking and drinking habits), and major CV risk factors (treated type 2 diabetes, treated hyperlipidemia, treated hypertension, and systolic and diastolic blood pressure). Patients also underwent physical examination and ECG assessment for potential cardiac morbidities. Medical history of CV events was captured by the following Standardized MedDRA Queries (myocardial infarction, ischemic heart diseases, ischemic stroke, hemorrhagic stroke, other arterial thrombotic/embolic events).
Cardiovascular events of interest were collected prospectively, typically at monthly visits, as adverse events or serious adverse events with date of occurrence. These events were coded using standard MedDRA terms and grouped into one of the same categories as those used to collect medical history.
The CV event rates in agonist and antagonist-treated patients were analyzed by 1-Kaplan-Meier plots of time to first-reported CV events and compared with log-rank test. The analysis was performed separately for strata of patients with or without history of CV events. To identify independent predictors of CV events we applied multivariate Cox proportional hazards models.
To further explore the apparent independent role of treatment choice and identify independent modifiable risk factors, this study established Cox proportional hazard models including CV events occurring during treatment as dependent variable and age, history of CV event, drinking (i.e., high alcohol consumption or abstinence) and smoking habits, hypertension, serum testosterone level and PCa disease stage as independent variables.

[5] = parameters: species or system human; conditions: in vivo
Excerpt: Plasma protein binding is estimated to be approximately 90%.

testosterone = experiment: Example 2: serum testosterone (LC-MS/MS); assay type: in vivo, human; conditions: from Day 28 (Month 1)
Protocol: Serum testosterone was typically measured at baseline and then monthly in all cases. Serum testosterone was measured at a central laboratory using a validated liquid chromatography system with a tandem mass spectrometry assay with a lower limit of quantitation of 3 ng/dl.

With `CC(=O)N[C@H](Cc1ccc2ccccc2c1)C(=O)N[C@H](Cc1ccc(Cl)cc1)C(=O)N[C@H](Cc1cccnc1)C(=O)N[C@@H](CO)C(=O)N[C@@H](Cc1ccc(NC(=O)[C@@H]2CC(=O)NC(=O)N2)cc1)C(=O)N[C@H](Cc1ccc(NC(N)=O)cc1)C(=O)N[C@@H](CC(C)C)C(=O)N[C@@H](CCCCNC(C)C)C(=O)N1CCC[C@H]1C(=O)N[C@H](C)C(N)=O` [Degarelix, D-Alaninamide, N-acetyl-3-(2-naphthalenyl)-D-alanyl-4-chloro-D-phenylalanyl-3-(3-pyridinyl)-D-alanyl-L-seryl-4-[[[(4S)-hexahydro-2,6-dioxo-4-pyrimidinyl]carbonyl]amino]-L phenylalanyl-4-[(aminocarbonyl)amino]-D-phenylalanyl-L leucyl-N6-(1-methylethyl)-L-lysyl-L-prolyl] (Ac-[d2Nal][dPhe(4-Cl)][d3Pal]S[Phe(4-NH2)](Dihydroorotyl(S))[dPhe(4-NHCONH2)]L[Lys(iPr)]P[dA]-NH2) the “metabolites in plasma samples” value (clinical) was “No significant metabolites were detected”, the “Median degarelix trough concentration” value (clinical; male, 80 mg) was 10.9 ng/mL and the AUC (clinical; male, 240 mg) was 29800 ng·h/mL. For the same molecule, the “substrate for the human CYP450 system” value (human CYP450 system) was “not a substrate for the human CYP450 system”, the “changes in liver function” value [1] was “no evidence of any clinically significant changes in liver function” and the “Cardiac arrhythmias, relative risk degarelix vs Lupron” value ([2]; BMI 25-<30 kg/m2) was 0.566. The “Cardiac disorders (SOC), relative risk degarelix vs Lupron” value ([2]; BMI 25-<30 kg/m2) was 0.765, the “Coronary artery disorders, relative risk degarelix vs Lupron” value ([2]; BMI 25-<30 kg/m2) was 1.013 and the “Cardiac arrhythmias, relative risk degarelix vs Lupron” value ([2]; BMI <25 kg/m2) was 0.312. For the same molecule, the “Cardiac disorders (SOC), relative risk degarelix vs Lupron” value ([2]; BMI <25 kg/m2) was 0.242, the “Coronary artery disorders, relative risk degarelix vs Lupron” value ([2]; BMI <25 kg/m2) was 0.000 and the “Coronary artery disorders, relative risk degarelix vs Lupron” value ([2]; BMI <25 kg/m2, listed as degarelix) was 0.0. The “Cardiac arrhythmias, relative risk degarelix vs Lupron” value ([2]; BMI >=30 kg/m2) was 3.161, the “Cardiac disorders (SOC), relative risk degarelix vs Lupron” value ([2]; BMI >=30 kg/m2) was 1.946 and the “Coronary artery disorders, relative risk degarelix vs Lupron” value ([2]; BMI >=30 kg/m2) was 1.217. For the same molecule, the “Cardiac arrhythmias, relative risk degarelix vs Lupron” value ([2]; Cholesterol <4 mmol/L) was 1.973, the “Cardiac arrhythmias, relative risk degarelix vs Lupron” value ([2]; Cholesterol >=4 mmol/L) was 0.411 and the “Cardiac arrhythmias, relative risk degarelix vs Lupron” value ([2]; Cholesterol >=4 mmol/L, listed as degarelix) was 0.41. For the same molecule, the “Coronary artery disease, % of patients” value [2] was “(3%)”, the “Coronary artery disease, incidence rate” value [2] was 34.2 per 1,000 person years and the “HLGT Cardiac arrhythmias, % of patients” value [2] was “(5%)”. For the same molecule, the “HLGT Cardiac arrhythmias, incidence rate” value [2] was 57.7 per 1,000 person years, the “HLGT Central nervous system vascular disorders, % of patients” value [2] was “(<1%)” and the “HLGT Central nervous system vascular disorders, incidence rate” value [2] was 14.2 per 1,000 person years. The “HLGT Coronary artery disorders, % of patients” value [2] was “(3%)”, the “HLGT Coronary artery disorders, incidence rate” value [2] was 34.2 per 1,000 person years and the “HLGT Heart failures, % of patients” value [2] was “(<1%)”. For the same molecule, the “HLGT Heart failures, incidence rate” value [2] was 14.1 per 1,000 person years, the “Heart failure, % of patients” value [2] was “(1%)” and the “Heart failure, incidence rate” value [2] was 14.1 per 1,000 person years. For the same molecule, the “MI, % of patients” value [2] was “(<1%)”, the “MI, incidence rate” value [2] was 5.64 per 1,000 person years and the “Stroke, % of patients” value [2] was “(<1%)”. The “Stroke, incidence rate” value [2] was 8.49 per 1,000 person years, the “drug-related erectile dysfunction, gynaecomastia, hyperhidrosis, testicular atrophy, diarrhea: % of patients” value [3] was at least 1% and the “Any CV adverse event, % (adverse events E)” value [4] was 6.0%. The “Any CV adverse event, % of patients with adverse events” value [4] was 2.9%, the “Any CV adverse event, E = Number of adverse events” value [4] was 90 and the “Any CV adverse event, N = Number of patients with adverse events” value [4] was 44. The “HR for CV event, degarelix versus the agonist” value [4] was 0.62, the “HR for CV event, degarelix vs agonist” value [4] was 0.49 and the “Hemorrhagic stroke, % (adverse events E)” value [4] was 0.2%. The “Hemorrhagic stroke, % of patients with adverse events” value [4] was 0.2%, the “Hemorrhagic stroke, E = Number of adverse events” value [4] was 3 and the “Hemorrhagic stroke, N = Number of patients with adverse events” value [4] was 3. The “Ischemic heart disease, % (adverse events E)” value [4] was 1.8%, the “Ischemic heart disease, % of patients with adverse events” value [4] was 1.7% and the “Ischemic heart disease, E = Number of adverse events” value [4] was 27. For the same molecule, the “Ischemic heart disease, N = Number of patients with adverse events” value [4] was 25, the “Ischemic stroke, % (adverse events E)” value [4] was 1.1% and the “Ischemic stroke, % of patients with adverse events” value [4] was 0.9%. The “Ischemic stroke, E = Number of adverse events” value [4] was 16, the “Ischemic stroke, N = Number of patients with adverse events” value [4] was 14 and the “Myocardial infarction, % (adverse events E)” value [4] was 1.0%. The “Myocardial infarction, % of patients with adverse events” value [4] was 0.8%, the “Myocardial infarction, E = Number of adverse events” value [4] was 15 and the “Myocardial infarction, N = Number of patients with adverse events” value [4] was 13. For the same molecule, the “Other embolic or thrombotic events, arterial, % (adverse events E)” value [4] was 1.9%, the “Other embolic or thrombotic events, arterial, % of patients with adverse events” value [4] was 1.5% and the “Other embolic or thrombotic events, arterial, E = Number of adverse events” value [4] was 29. For the same molecule, the “Other embolic or thrombotic events, arterial, N = Number of patients with adverse events” value [4] was 23, the “risk of a CV event lower if taking degarelix versus the agonist” value [4] was 38% and the distribution volume [5] was “approximately 1 L/kg”. The “fraction excreted via the hepato-biliary system” value [5] was “approximately 80%”, the “fraction of dose renally excreted” value [5] was “approximately 20%” and the median testosterone level (testosterone) was under 0.5 ng/mL.
In the case of `CCNC(=O)[C@@H]1CCCN1C(=O)[C@H](CCCNC(=N)N)NC(=O)[C@H](CC(C)C)NC(=O)[C@@H](CC(C)C)NC(=O)[C@H](Cc1ccc(O)cc1)NC(=O)[C@H](CO)NC(=O)[C@H](Cc1c[nH]c2ccccc12)NC(=O)[C@H](Cc1c[nH]cn1)NC(=O)[C@@H]1CCC(=O)N1` [Leuprolide, leuprolide, reference compound], the “Coronary artery disease, % of patients” value [2] is reported as “(5%)”, the “Coronary artery disease, incidence rate” value [2] is reported as 63.4 per 1,000 person years and the “HLGT Cardiac arrhythmias, % of patients” value [2] is reported as “(8%)”. For the same molecule, the “HLGT Cardiac arrhythmias, incidence rate” value [2] was 100 per 1,000 person years, the “HLGT Central nervous system vascular disorders, % of patients” value [2] was “(<1%)” and the “HLGT Central nervous system vascular disorders, incidence rate” value [2] was 5.63 per 1,000 person years. For the same molecule, the “HLGT Coronary artery disorders, % of patients” value [2] was “(5%)”, the “HLGT Coronary artery disorders, incidence rate” value [2] was 63.4 per 1,000 person years and the “HLGT Heart failures, % of patients” value [2] was “(2%)”. For the same molecule, the “HLGT Heart failures, incidence rate” value [2] was 28.4 per 1,000 person years, the “Heart failure, % of patients” value [2] was “(2%)” and the “Heart failure, incidence rate” value [2] was 28.4 per 1,000 person years. The “MI, % of patients” value [2] was “(2%)”, the “MI, incidence rate” value [2] was 22.6 per 1,000 person years and the “Stroke, % of patients” value [2] was “(<1%)”. The “Stroke, incidence rate” value [2] was 5.63 per 1,000 person years.

Reference: patent publication US11766468B2, “Method of treating prostate cancer with GnRH antagonist” (priority 2012, dated 2023)
